# Patent publication US8937091B2 (Japan Science and Technology Agency, priority 2009, dated 2015)
# Assays:
# [1] = tested on: SOCE (store operated calcium entry) in CHO cells; test: Assay of SOCE (store operated calcium entry)-inhibiting action; type: cell-based, Chinese hamster; details: CHO cells, thapsigargin; for inhibition at 10 µM / inhibition at 30 µM / inhibition at 100 µM: Cricetulus griseus, CHO, read-out: SOCE level (percentage of inhibition)
# Procedure: The extracellular fluid (i.e., medium) of cultured Chinese hamster ovary (CHO) cells was replaced by BSS containing no calcium. One minute later, a test compound was added. Two minutes later, 1 μM thapsigargin was added to cause depletion of the intracellular calcium store. Nine minutes later, calcium chloride (final concentration: 2 mM) was added to the extracellular fluid. The SOCE-inhibiting action levels at different compound concentrations after the addition of calcium chloride were determined as the percentage of inhibition (%) by evaluating the influence of the compound on the degree of increase in the intracellular calcium concentration.
# (§1) Hereafter, the numerals in parentheses written after the TG level, the SOCE level, and the IICR level correspond to the test compound concentrations. The number following the name of each title compound used in the Examples below represents a compound ID number designated arbitrarily by the present inventors.
# [2] = tested on: IICR (IP3 induced calcium release) in CHO cells; test: Assay of IICR (IP3 induced calcium release)-inhibiting action; type: cell-based, Chinese hamster; details: CHO cells, 10 μM ATP; for inhibition at 10 µM / inhibition at 30 µM / inhibition at 100 µM: Cricetulus griseus, CHO, read-out: IICR level (percentage of inhibition); for inhibition at 30 µM: test compound 30 μmol; for inhibition at 100 µM: test compound 100 μmol
# Procedure: The extracellular fluid (i.e., medium) of cultured CHO cells was replaced by BSS containing calcium. One minute later, a test compound was added. Two minutes later, 10 μM ATP was added. The IICR-inhibiting action levels at different compound concentrations after the addition of ATP were determined as the percentage of inhibition (%) by evaluating the influence of the compound on the degree of increase in the intracellular calcium concentration.
# as §1
structure (smiles),measurement,setting,value
"CC(C)(C)N(CCO)CCC(=O)c1ccncc1 [Example 30, 2-(N-t-butyl-2-hydroxyethyl)aminoethyl-4-pyridylketone]",inhibition at 10 µM,[1]; test compound 10 μmol,0%
same,inhibition at 30 µM,[1]; test compound 30 μmol,0%
same,inhibition at 100 µM,[1]; test compound 100 μmol,0%
same,inhibition at 10 µM,[2]; test compound 10 μmol,20%
same,inhibition at 30 µM,[2],10%
same,inhibition at 100 µM,[2],10%
"CN(CCC(=O)c1ccncc1)Cc1ccccc1 [Example 31, 2-(N-methylbenzyl)aminoethyl-4-pyridylketone]",inhibition at 10 µM,[1]; test compound 10 μmol,0%
same,inhibition at 30 µM,[1]; test compound 30 μmol,0%
same,inhibition at 100 µM,[1]; test compound 100 μmol,0%
same,inhibition at 10 µM,[2]; test compound 10 μmol,40%
same,inhibition at 30 µM,[2],60%
same,inhibition at 100 µM,[2],80%
"CCCCN(CCO)CCC(=O)c1ccncc1 [Example 51, 2-(N-hydroxyethylbutyl)aminoethyl-4-pyridylketone]",inhibition at 10 µM,[1]; test compound 10 μmol,0%
same,inhibition at 30 µM,[1]; test compound 30 μmol,0%
same,inhibition at 100 µM,[1]; test compound 100 μmol,0%
same,inhibition at 10 µM,[2]; test compound 10 μmol,0%
same,inhibition at 30 µM,[2],20%
same,inhibition at 100 µM,[2],100%
"CC(C)N(CCO)CCC(=O)c1ccsc1 [Example 56, 2-(hydroxyethylisopropyl)aminoethyl-3-thiophenylketone]",inhibition at 10 µM,[1]; test compound 10 μmol,0%
same,inhibition at 30 µM,[1]; test compound 30 μmol,0%
same,inhibition at 100 µM,[1]; test compound 100 μmol,0%
same,inhibition at 10 µM,[2]; test compound 10 μmol,0%
same,inhibition at 30 µM,[2],0%
same,inhibition at 100 µM,[2],50%
"CC(C)N(CCC(=O)c1ccc(Cc2ccccc2)cc1)Cc1ccccc1 [Example 64, 2-(N-isopropylbenzyl)aminoethyl-4-benzylphenylketone]",SOCE level (percentage of inhibition),[1]; test compound 10 μmol,0%
same,SOCE level (percentage of inhibition),[1]; test compound 30 μmol,0%
same,SOCE level (percentage of inhibition),[1]; test compound 100 μmol,30%
same,inhibition at 30 µM,[2],70%
same,inhibition at 100 µM,[2],96%
same,IICR level (percentage of inhibition),[2]; test compound 10 μmol,50%
"Cc1ccc(C(=O)CCN(Cc2ccccc2)C(C)C)cc1 [Example 65, 2-(N-isopropylbenzyl)aminoethyl-4-methylphenylketone]",inhibition at 10 µM,[1]; test compound 10 μmol,0%
same,inhibition at 30 µM,[1]; test compound 30 μmol,0%
same,inhibition at 100 µM,[1]; test compound 100 μmol,30%
same,inhibition at 10 µM,[2]; test compound 10 μmol,30%
same,inhibition at 30 µM,[2],10%
same,inhibition at 100 µM,[2],30%
"CC(C)N(CCC(=O)c1ccc2ccccc2c1)Cc1ccccc1 [Example 66, 2-(N-isopropylbenzyl)aminoethyl-2-naphthylketone]",inhibition at 10 µM,[1]; test compound 10 μmol,0%
same,inhibition at 30 µM,[1]; test compound 30 μmol,0%
same,inhibition at 100 µM,[1]; test compound 100 μmol,0%
same,inhibition at 10 µM,[2]; test compound 10 μmol,10%
same,inhibition at 30 µM,[2],10%
same,inhibition at 100 µM,[2],70%
"C=CC(=O)c1cccc2ccccc12 [Example 68, 1-acryloylnaphthalene]",inhibition at 10 µM,[1]; test compound 10 μmol,0%
same,inhibition at 30 µM,[1]; test compound 30 μmol,10%
same,inhibition at 100 µM,[1]; test compound 100 μmol,70%
same,inhibition at 10 µM,[2]; test compound 10 μmol,80%
same,inhibition at 30 µM,[2],90%
same,inhibition at 100 µM,[2],95%
"CC(C)N(CCC(=O)c1ccccc1)Cc1ccccc1 [Example 69, 2-(isopropylbenzyl)aminoethylphenylketone]",inhibition at 10 µM,[1]; test compound 10 μmol,0%
same,inhibition at 30 µM,[1]; test compound 30 μmol,10%
same,inhibition at 100 µM,[1]; test compound 100 μmol,20%
same,inhibition at 10 µM,[2]; test compound 10 μmol,20%
same,inhibition at 30 µM,[2],20%
same,inhibition at 100 µM,[2],90%
"O=C(CCN(c1ccccc1)c1ccccc1)c1cccc2ccccc12 [Example 70, 2-N-diphenylaminoethyl naphthylketone]",inhibition at 10 µM,[1]; test compound 10 μmol,0%
same,inhibition at 30 µM,[1]; test compound 30 μmol,10%
same,inhibition at 100 µM,[1]; test compound 100 μmol,20%
same,inhibition at 10 µM,[2]; test compound 10 μmol,10%
same,inhibition at 30 µM,[2],0%
same,inhibition at 100 µM,[2],40%
"CN(CCC(=O)c1ccc2ccccc2c1)Cc1ccccc1 [Example 71, 2-(N-methylbenzyl)aminoethyl naphthylketone]",inhibition at 10 µM,[1]; test compound 10 μmol,0%
same,inhibition at 30 µM,[1]; test compound 30 μmol,0%
same,inhibition at 10 µM,[2]; test compound 10 μmol,0%
"COc1ccc(C(=O)CCN(Cc2ccccc2)C(C)C)cc1 [Example 72, 2-(N-isopropylbenzyl)aminoethyl-4-methoxyphenylketone]",inhibition at 10 µM,[1]; test compound 10 μmol,0%
same,inhibition at 30 µM,[1]; test compound 30 μmol,10%
same,inhibition at 100 µM,[1]; test compound 100 μmol,20%
same,inhibition at 10 µM,[2]; test compound 10 μmol,20%
same,inhibition at 30 µM,[2],20%
same,inhibition at 100 µM,[2],70%
"CC(C)N(CCC(=O)c1ccccn1)Cc1ccccc1 [Example 73, 2-(N-isopropylbenzyl)aminoethyl-2-pyridylketone]",inhibition at 10 µM,[1]; test compound 10 μmol,0%
same,inhibition at 30 µM,[1]; test compound 30 μmol,0%
same,inhibition at 100 µM,[1]; test compound 100 μmol,10%
same,inhibition at 10 µM,[2]; test compound 10 μmol,70%
same,inhibition at 30 µM,[2],100%
same,inhibition at 100 µM,[2],90%
"CN(CCC(=O)c1cccc2ccccc12)Cc1ccccc1 [Example 74, 2-(N-methylbenzyl)aminoethyl-1-naphthylketone]",inhibition at 10 µM,[1]; test compound 10 μmol,0%
same,inhibition at 30 µM,[1]; test compound 30 μmol,10%
same,inhibition at 100 µM,[1]; test compound 100 μmol,30%
same,inhibition at 10 µM,[2]; test compound 10 μmol,30%
same,inhibition at 30 µM,[2],50%
same,inhibition at 100 µM,[2],70%
"O=C(CCN(c1ccccc1)c1ccccc1)c1ccc2ccccc2c1 [Example 75, 2-(N-diphenyl)aminoethyl-2-naphthylketone]",inhibition at 10 µM,[1]; test compound 10 μmol,0%
same,inhibition at 30 µM,[1]; test compound 30 μmol,0%
same,inhibition at 100 µM,[1]; test compound 100 μmol,0%
same,inhibition at 10 µM,[2]; test compound 10 μmol,0%
same,inhibition at 30 µM,[2],0%
same,inhibition at 100 µM,[2],0%
"COc1ccc(C(=O)CCN(C)Cc2ccccc2)cc1 [Example 76, 2-(N-methylbenzyl)aminoethyl-4-methoxyphenylketone]",inhibition at 10 µM,[1]; test compound 10 μmol,0%
same,inhibition at 30 µM,[1]; test compound 30 μmol,10%
same,inhibition at 100 µM,[1]; test compound 100 μmol,20%
same,inhibition at 10 µM,[2]; test compound 10 μmol,0%
same,inhibition at 30 µM,[2],10%
same,inhibition at 100 µM,[2],30%
"CN(CCC(=O)c1ccccn1)Cc1ccccc1 [Example 77, 2-(N-methylbenzyl)aminoethyl-2-pyridylketone]",inhibition at 10 µM,[1]; test compound 10 μmol,0%
same,inhibition at 30 µM,[1]; test compound 30 μmol,20%
same,inhibition at 100 µM,[1]; test compound 100 μmol,30%
same,inhibition at 10 µM,[2]; test compound 10 μmol,0%
same,inhibition at 30 µM,[2],10%
same,inhibition at 100 µM,[2],30%
"Cc1cccc2cc(C(=O)CCN(C)Cc3ccccc3)ccc12 [Example 78, 2-(N-methylbenzyl)aminoethyl-5-methyl-2-naphthylketone]",inhibition at 10 µM,[1]; test compound 10 μmol,10%
same,inhibition at 30 µM,[1]; test compound 30 μmol,20%
same,inhibition at 100 µM,[1]; test compound 100 μmol,50%
same,inhibition at 10 µM,[2]; test compound 10 μmol,20%
same,inhibition at 30 µM,[2],70%
same,inhibition at 100 µM,[2],90%
"Cc1cccc2cc(C(=O)CCN(Cc3ccccc3)C(C)C)ccc12 [Example 79, 2-(N-isopropylbenzyl)aminoethyl-5-methyl-2-naphthylketone]",inhibition at 10 µM,[1]; test compound 10 μmol,10%
same,inhibition at 30 µM,[1]; test compound 30 μmol,30%
same,inhibition at 100 µM,[1]; test compound 100 μmol,70%
same,inhibition at 10 µM,[2]; test compound 10 μmol,70%
same,inhibition at 30 µM,[2],90%
same,inhibition at 100 µM,[2],90%
"Cc1cccc2cc(C(=O)CCN(c3ccccc3)c3ccccc3)ccc12 [Example 80, 2-(N-diphenyl)aminoethyl-5-methyl-2-naphthylketone]",inhibition at 10 µM,[1]; test compound 10 μmol,10%
same,inhibition at 30 µM,[1]; test compound 30 μmol,30%
same,inhibition at 100 µM,[1]; test compound 100 μmol,50%
same,inhibition at 10 µM,[2]; test compound 10 μmol,10%
same,inhibition at 30 µM,[2],50%
same,inhibition at 100 µM,[2],90%
"Cc1cccc2cc(C(=O)CCN3CCCCC3)ccc12 [Example 81, 2-piperidinoethyl-5-methyl-2-naphthylketone]",inhibition at 10 µM,[1]; test compound 10 μmol,0%
same,inhibition at 30 µM,[1]; test compound 30 μmol,10%
same,inhibition at 100 µM,[1]; test compound 100 μmol,40%
same,inhibition at 10 µM,[2]; test compound 10 μmol,0%
same,inhibition at 30 µM,[2],10%
same,inhibition at 100 µM,[2],30%
"CC(C)N(CCC(=O)c1cccc2ccccc12)Cc1ccccc1 [Example 82, 1-(N-benzylisopropyl)aminoethyl-1-naphthylketone]",inhibition at 10 µM,[1]; test compound 10 μmol,0%
same,inhibition at 30 µM,[1]; test compound 30 μmol,0%
same,inhibition at 100 µM,[1]; test compound 100 μmol,20%
same,inhibition at 10 µM,[2]; test compound 10 μmol,50%
same,inhibition at 30 µM,[2],70%
same,inhibition at 100 µM,[2],100%
"CC(C)N(CCC(=O)c1ccc2c(Cl)cccc2c1)Cc1ccccc1 [Example 84, 2-(N-isopropylbenzyl)aminoethyl-5-chloro-2-naphthylketone]",inhibition at 10 µM,[1]; test compound 10 μmol,20%
same,inhibition at 30 µM,[1]; test compound 30 μmol,30%
same,inhibition at 100 µM,[1]; test compound 100 μmol,70%
same,inhibition at 10 µM,[2]; test compound 10 μmol,90%
same,inhibition at 30 µM,[2],100%
same,inhibition at 100 µM,[2],100%
"CC(C)N(CCC(=O)c1ccc(Oc2ccccc2)cc1)Cc1ccccc1 [Example 85, 2-(N-isopropylbenzyl)aminoethyl-4-phenoxyphenylketone]",inhibition at 10 µM,[1]; test compound 10 μmol,10%
same,inhibition at 30 µM,[1]; test compound 30 μmol,20%
same,inhibition at 100 µM,[1]; test compound 100 μmol,30%
same,inhibition at 10 µM,[2]; test compound 10 μmol,50%
same,inhibition at 30 µM,[2],50%
same,inhibition at 100 µM,[2],95%
"CN(CCC(=O)c1ccc(Oc2ccccc2)cc1)Cc1ccccc1 [Example 86, 2-(N-methylbenzyl)aminoethyl-4-phenoxyphenylketone]",inhibition at 10 µM,[1]; test compound 10 μmol,0%
same,inhibition at 30 µM,[1]; test compound 30 μmol,20%
same,inhibition at 100 µM,[1]; test compound 100 μmol,50%
same,inhibition at 10 µM,[2]; test compound 10 μmol,30%
same,inhibition at 30 µM,[2],70%
same,inhibition at 100 µM,[2],95%
"O=C(CCNCC(O)c1ccccc1)c1ccc(Oc2ccccc2)cc1 (stereo not drawn) [Example 87, 2-(N-2-hydroxy-2-phenylethyl)aminoethyl-4-phenoxyphenylketone]",inhibition at 10 µM,[1]; test compound 10 μmol,0%
same,inhibition at 30 µM,[1]; test compound 30 μmol,0%
same,inhibition at 100 µM,[1]; test compound 100 μmol,20%
same,inhibition at 10 µM,[2]; test compound 10 μmol,10%
same,inhibition at 30 µM,[2],10%
same,inhibition at 100 µM,[2],90%
